Assay results published in the supplement of paper PMC11061612.

Experiments:
[1] = compound: CC1=CN2[C@@H](C1)C=NC3=CC(=C(C=C3C2=O)OC)OCCCCCOC4=C(C=C5C(=C4)N=C[C@@H]6CC(=CN6C5=O)C)OC [SG3199]; settings: max 0.001 µM
In short: (§1)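 In 1536-well plates, cancer cell lines in 7.5 μl DMEM/F12 or RPMI with 10% FBS spent 24 hours at 37°C and 5% CO2 and were then dosed for 72 hours with final DMSO typically 0.2%. Viability was read by CellTiter-Glo 2.0 luminescence and scaled between blank-well and DMSO-well means. The single-agent IC50 was fitted from dose responses using a logistic curve in a non-linear mixed effects model, and that logistic curve had two parameters.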

[2] = compound: CC1(C)CCC(CN2CCN(c3ccc(C(=O)NS(=O)(=O)c4ccc(NCC5CCOCC5)c([N+](=O)[O-])c4)c(Oc4cnc5[nH]ccc5c4)c3)CC2)=C(c2ccc(Cl)cc2)C1 [Venetoclax]; settings: max 1 µM
In short: as §1

[3] = compound: Cc1nc(-c2cn3c(n2)-c2ccc(-c4cnn(C(C)(C)C(N)=O)c4)cc2OCC3)n(C(C)C)n1 [Taselisib]; settings: max 10 µM
In short: as §1

[4] = compound: CN(C)CCCOc1ccc(-c2ccc3ncc4c(c3c2)n(C2CCOCC2)c(=O)n4C)cn1 [AZD0156]; settings: max 3 µM
In short: as §1

[5] = compound: C[C@@H](Nc1cc(F)cc(F)c1)c1cc(C(=O)N(C)C)cc2c(=O)cc(N3CCOCC3)oc12 [AZD8186]; settings: max 3 µM
In short: as §1

[6] = compound: Cc1cc2ncnn2cc1Nc1ncc2c(n1)n(C1CCOCC1)c(=O)n2C [AZD7648]; settings: max 10 µM
In short: as §1

[7] = compound: C1CN(CCC1(C(=O)N[C@@H](CCO)C2=CC=C(C=C2)Cl)N)C3=NC=NC4=C3C=CN4 [Capivasertib]; settings: max 10 µM
In short: as §1

[8] = compound: Cc1c2c(nn1C)CSCc1cc(n(C)n1)CSc1cc(c3ccccc3c1)OCCCc1c(C(=O)O)n(C)c3c-2c(Cl)ccc13 [AZD5991]; settings: max 1 µM
In short: as §1

[9] = compound: C[C@@H]1COCCN1C2=NC(=NC(=C2)C3(CC3)[S@](=N)(=O)C)C4=C5C=CNC5=NC=C4 [AZD6738]; settings: max 10 µM
In short: as §1

[10] = compound: COc1cc(Nc2ncc3c(n2)-c2ccc(Cl)cc2C(c2c(F)cccc2OC)=NC3)ccc1C(=O)O [Alisertib]; settings: max 10 µM
In short: as §1

[11] = compound: COc1cc2ncnc(Nc3ccc(F)c(Cl)c3)c2cc1OCCCN1CCOCC1 [Gefitinib]; settings: max 10 µM
In short: as §1

[12] = compound: COc1nnc2ccc(N3CCC(c4ccc(OCCN5CCN(C)C(=O)[C@H]5C)cc4)CC3)nn12 [AZD5153]; settings: max 1 µM
In short: as §1

[13] = compound: C[C@@H](Oc1cc(-c2cnn(C3CCNCC3)c2)cnc1N)c1c(Cl)ccc(F)c1Cl [Crizotinib]; settings: max 10 µM
In short: as §1

[14] = compound: CCc1c2c(nc3ccc(O)cc13)-c1cc3c(c(=O)n1C2)COC(=O)[C@]3(O)CC [SN-38]; settings: max 0.3 µM
In short: as §1

[15] = compound: CC1=C(C(=CC=C1)Cl)NC(=O)C2=CN=C(S2)NC3=CC(=NC(=N3)C)N4CCN(CC4)CCO [Dasatinib]; settings: max 2 µM
In short: as §1

[16] = compound: C[C@@H](c1ccc2nccn2c1)n1nnc2ncc(-c3cnn(C)c3)nc21 [Savolitinib]; settings: max 1 µM
In short: as §1

[17] = compound: CC(=O)c1c(C)c2cnc(Nc3ccc(N4CCNCC4)cn3)nc2n(C2CCCC2)c1=O [Palbociclib]; settings: max 10 µM
In short: as §1

[18] = compound: CCN(CCO)CCCOc1ccc2c(Nc3cc(CC(=O)Nc4cccc(F)c4)[nH]n3)ncnc2c1 [AZD2811]; settings: max 1 µM
In short: as §1

[19] = compound: C=CCn1c(=O)c2cnc(Nc3ccc(N4CCN(C)CC4)cc3)nc2n1-c1cccc(C(C)(C)O)n1 [AZD1775]; settings: max 3 µM
In short: as §1

[20] = compound: CS(=O)(=O)CCNCc1ccc(-c2ccc3ncnc(Nc4ccc(OCc5cccc(F)c5)c(Cl)c4)c3c2)o1 [Lapatinib]; settings: max 10 µM
In short: as §1

[21] = compound: CC(C)n1c(=O)n(C)c2cnc3cc(F)c(-c4ccc(OCCCN5CCCCC5)nc4)cc3c21 [AZD1390]; settings: max 0.3 µM
In short: as §1

[22] = compound: O=C(c1cc(Cc2n[nH]c(=O)c3ccccc23)ccc1F)N1CCN(C(=O)C2CC2)CC1 [Olaparib]; settings: max 10 µM
In short: as §1

[23] = compound: COc1cccc(OCCCN)c1-c1cc(Nc2cnc(C#N)cn2)n[nH]1 [Prexasertib]; settings: max 1 µM
In short: as §1

[24] = compound: CN(CC[C@H](CSC1=CC=CC=C1)NC2=C(C=C(C=C2)S(=O)(=O)NC(=O)C3=CC=C(C=C3)N4CCC(CC4)[C@H](C5=CC=CC=C5C6=CC=C(C=C6)Cl)O)S(=O)(=O)C(F)(F)F)CCO [AZD4320]; settings: max 1 µM
In short: as §1

[25] = compound: Cn1cnc2c(F)c(Nc3ccc(Br)cc3Cl)c(C(=O)NOCCO)cc21 [Selumetinib]; settings: max 10 µM
In short: as §1

[26] = compound: COc1cccc2c1C(=O)c1c(O)c3c(c(O)c1C2=O)C[C@@](O)(C(=O)CO)C[C@@H]3O[C@H]1C[C@H](N)[C@H](O)[C@H](C)O1 [Doxorubicin]; settings: max 1 µM
In short: as §1

[27] = compound: CC(=O)Nc1cccc(-n2c(=O)n(C3CC3)c(=O)c3c(Nc4ccc(I)cc4F)n(C)c(=O)c(C)c32)c1 [Trametinib]; settings: max 1 µM
In short: as §1

NCI-H1341 (Small Cell Lung Carcinoma)
IC50, cell viability 72 h [1]: > 0.001 µM | IC50, cell viability 72 h [2]: > 1 µM | IC50, cell viability 72 h [3]: 0.684 µM | IC50, cell viability 72 h [4]: > 3 µM | IC50, cell viability 72 h [5]: > 3 µM | IC50, cell viability 72 h [6]: > 10 µM | IC50, cell viability 72 h [7]: 9.05 µM | IC50, cell viability 72 h [8]: > 1 µM | IC50, cell viability 72 h [9]: 6.03 µM | IC50, cell viability 72 h [10]: 0.91 µM | IC50, cell viability 72 h [11]: > 10 µM | IC50, cell viability 72 h [12]: 0.739 µM | IC50, cell viability 72 h [13]: > 10 µM | IC50, cell viability 72 h [14]: 0.0138 µM | IC50, cell viability 72 h [15]: > 2 µM | IC50, cell viability 72 h [16]: > 1 µM | IC50, cell viability 72 h [17]: > 10 µM | IC50, cell viability 72 h [18]: > 1 µM | IC50, cell viability 72 h [19]: 1.24 µM | IC50, cell viability 72 h [20]: > 10 µM | IC50, cell viability 72 h [21]: > 0.3 µM | IC50, cell viability 72 h [22]: > 10 µM | IC50, cell viability 72 h [23]: 0.0471 µM | IC50, cell viability 72 h [24]: 0.0593 µM | IC50, cell viability 72 h [25]: > 10 µM | IC50, cell viability 72 h [26]: 0.587 µM | IC50, cell viability 72 h [27]: > 1 µM

WM35 (Melanoma)
IC50, cell viability 72 h [1]: > 0.001 µM | IC50, cell viability 72 h [2]: > 1 µM | IC50, cell viability 72 h [3]: > 10 µM | IC50, cell viability 72 h [4]: > 3 µM | IC50, cell viability 72 h [5]: > 3 µM | IC50, cell viability 72 h [6]: > 10 µM | IC50, cell viability 72 h [7]: > 10 µM | IC50, cell viability 72 h [8]: > 1 µM | IC50, cell viability 72 h [9]: > 10 µM | IC50, cell viability 72 h [10]: > 10 µM | IC50, cell viability 72 h [11]: > 10 µM | IC50, cell viability 72 h [12]: > 1 µM | IC50, cell viability 72 h [13]: > 10 µM | IC50, cell viability 72 h [14]: 0.21 µM | IC50, cell viability 72 h [15]: > 2 µM | IC50, cell viability 72 h [16]: > 1 µM | IC50, cell viability 72 h [17]: > 10 µM | IC50, cell viability 72 h [18]: > 1 µM | IC50, cell viability 72 h [19]: > 3 µM | IC50, cell viability 72 h [20]: > 10 µM | IC50, cell viability 72 h [21]: > 0.3 µM | IC50, cell viability 72 h [22]: > 10 µM | IC50, cell viability 72 h [23]: 0.134 µM | IC50, cell viability 72 h [24]: > 1 µM | IC50, cell viability 72 h [25]: 1.09 µM | IC50, cell viability 72 h [26]: > 1 µM | IC50, cell viability 72 h [27]: 0.0166 µM
